Test results published in patent publication US20060211698A1, “Bicyclic heteroaryl derivatives for treating viruses” (Genelabs, Inc., priority 2005, published 2006).

biological target: T1, HCV-NS5b (Hepatitis C virus genotype 1b, UniProt Q9WMX2); experiment: HCV-NS5b Enzyme Assay; format: biochemical; details: 1 μM test compound; incorporation of [3H]-UTP, 37° C., 2 hours
T1 construct: The cloned fragment was missing the C terminus 21 amino acid residues; (His)6 (C); made in house; host or cells: XL-1 cells (E. coli)
Source text: The coding sequence of NS5b protein was cloned by PCR from pFKI389luc/NS3-3′/ET as described by Lohmann, V., et al. (1999) Science 285, 110-113 using the following primers: • […] (SEQ. ID. NO. 1) • […] (SEQ. ID. NO. 2)
The cloned fragment was missing the C terminus 21 amino acid residues. The cloned fragment is inserted into an IPTG-inducible expression plasmid that provides an epitope tag (His)6 at the carboxy terminus of the protein.
The recombinant enzyme was expressed in XL-1 cells and after induction of expression, the protein was purified using affinity chromatography on a nickel-NTA column. Storage condition is 10 mM Tris-HCl pH 7.5, 50 mM NaCl, 0.1 mM EDTA, 1 mM DTT, 20% glycerol at −20° C.
The polymerase activity was assayed by measuring incorporation of radiolabeled UTP into a RNA product using a biotinylated, heteropolymeric template, which includes a portion of the HCV genome. Typically, the assay mixture […] contains 10 mM Tris-HCl (pH 7.5), 5 mM MgCl2, 0.2 mM EDTA, 10 mM KCl, 1 unit/μL RNAsin. 1 mM DTT, 10 μM each of NTP, including [^3H]-UTP, and 10 ng/μL biotinylated heteropolymeric template. 20× test compound in 2 μl's was then added as a 100% DMSO solution to achieve a final DMSO concentration of 5%. For IC50 determination a 10-point dose response was used. The compounds were serial diluted 2-fold […]. Typically for IC50's, compounds were tested starting at 50 uM or 2 μm depending on the potency. Reactions were started with addition of 10×NS5B in 4 μl's and allowed to incubate at 37° C. for 2 hours. Reactions were quenched with 8 μL of 100 mM EDTA and reaction mixtures (30 μL) were transferred to streptavidin-coated scintillation proximity microtiter plates (FlashPlates) and incubated at 4° C. overnight. Incorporation of radioactivity was determined by scintillation counting (cpm). The % Inhibition at a particular concentration was determined using the following equation, % Inhibition=100−[100*(cpm with inhibitor−bg)/(cpm with no inhibitor−bg)] where bg was the background with no enzyme.

Row | Structure (SMILES) | inhibition at 1 µM [%] | % inhibition @ 1 μM [%]
1 | O=C(O)c1ccc2c(C3CCCCC3)c(-c3ccc4nc(-c5ccc(F)c(F)c5)ccc4c3)n(CC(=O)N3CCOCC3)c2c1 [Compound 266, 3-Cyclohexyl-2-[2-(3,4-difluoro-phenyl)-quinolin-6-yl]-1-(2-morpholin-4-yl-2-oxo-ethyl)-1H-indole-6-carboxylic acid] | 97.1 | 
2 | COc1ccncc1-c1ccc(-c2c(C3CCCCC3)c3ccc(C(=O)O)cc3n2CC(=O)O)cc1 [Compound 308, 1-Carboxymethyl-3-cyclohexyl-2-[4-(4-methoxy-pyridin-3-yl)-phenyl]-1H-indole-6-carboxylic acid] | 97.5 | 
3 | Cc1nc(C)c(-c2ccc3cc(-c4c(C5CCCCC5)c5ccc(C(=O)O)cc5n4CC(=O)N4CCC(O)CC4)ccc3n2)s1 [Compound 236, 3-Cyclohexyl-2-[2-(2,4-dimethyl-thiazol-5-yl)-quinolin-6-yl]-1-[2-(4-hydroxy-piperidin-1-yl)-2-oxo-ethyl]-1H-indole-6-carboxylic acid] | 92.5 | 
4 | COc1ccc(-c2ccc3cc(-c4c(C5CCCCC5)c5ccc(C(=O)O)cc5n4CC(=O)N4CCOCC4)ccc3n2)c(F)c1 [Compound 257, 3-Cyclohexyl-2-[2-(2-fluoro-4-methoxy-phenyl)-quinolin-6-yl]-1-(2-morpholin-4-yl-2-oxo-ethyl)-1H-indole-6-carboxylic acid] | 98.6 | 
5 | O=C(O)c1ccc2c(C3CCCCC3)c(-c3ccc4nc(-c5ccc[nH]5)ccc4c3)n(CC(=O)N3CCOCC3)c2c1 [Compound 219, 1-[N-morpholinocarbonylmethyl]-2-[2-(pyrrol-2-yl)-quinolin-6-yl]-3-cyclohexyl-1H-indole-6-carboxylic acid] |  | 96.0
6 | O=C(O)c1ccc2c(C3CCCCC3)c(-c3ccc4nc(-c5ccccc5)cnc4c3)n(CC(=O)N3CCOCC3)c2c1 [Compound 330, 3-Cyclohexyl-1-(2-morpholin-4-yl-2-oxo-ethyl)-2-(2-phenyl-quinoxalin-6-yl)-1H-indole-6-carboxylic acid] | 96.8 | 
7 | CN(C)c1ccc(-c2ccc(-c3c(C4CCCCC4)c4ccc(C(=O)O)cc4n3CC(=O)N3CCOCC3)cc2)cc1 [Compound 299, 3-Cyclohexyl-2-(4′-dimethylamino-biphenyl-4-yl)-1-(2-morpholin-4-yl-2-oxo-ethyl)-1H-indole-6-carboxylic acid] | 94.9 | 
8 | O=C(O)c1ccc2c(C3CCCCC3)c(-c3ccc(-c4ccc(Cl)s4)cc3)n(CC(=O)N3CCOCC3)c2c1 [Compound 318, 2-[4-(5-Chloro-thiophen-2-yl)-phenyl]-3-cyclohexyl-1-(2-morpholin-4-yl-2-oxo-ethyl)-1H-indole-6-carboxylic acid] | 98.1 | 
9 | Cc1cc(Cn2c(-c3ccc4nc(-c5sc(C)nc5C)ccc4c3)c(C3CCCCC3)c3ccc(C(=O)O)cc32)no1 [Compound 291, 3-Cyclohexyl-2-[2-(2,4-dimethyl-thiazol-5-yl)-quinolin-6-yl]-1-(5-methyl-isoxazol-3-ylmethyl)-1H-indole-6-carboxylic acid] | 96.4 | 
10 | Cc1ccccc1-c1ccc2cc(-c3c(C4CCCCC4)c4ccc(C(=O)O)cc4n3CC(=O)N3CCOCC3)ccc2n1 [Compound 232, 3-Cyclohexyl-1-(2-morpholin-4-yl-2-oxo-ethyl)-2-(2-o-tolyl-quinolin-6-yl)-1H-indole-6-carboxylic acid] | 97.5 | 
11 | Cc1ccccc1-c1ccc(-c2c(C3CCCCC3)c3ccc(C(=O)O)cc3n2CC(=O)N2CCOCC2)cc1 [Compound 313, 3-Cyclohexyl-2-(2′-methyl-biphenyl-4-yl)-1-(2-morpholin-4-yl-2-oxo-ethyl)-1H-indole-6-carboxylic acid] | 99.6 | 
12 | Cc1nc(C)c(-c2ccc3cc(-c4c(C5CCCCC5)c5ccc(C(=O)O)cc5n4CC(=O)N4CCOCC4)cc(Br)c3n2)s1 [Compound 282, 2-[8-Bromo-2-(2,4-dimethyl-thiazol-5-yl)-quinolin-6-yl]-3-cyclohexyl-1-(2-morpholin-4-yl-2-oxo-ethyl)-1H-indole-6-carboxylic acid] | 87.8 | 
13 | Cc1nc(C)c(-c2ccc3cc(-c4[nH]c5cc(C(=O)O)ccc5c4C4CCCCC4)ccc3n2)s1 [Compound 333, 3-Cyclohexyl-2-[2-(2,4-dimethyl-thiazol-5-yl)-quinolin-6-yl]-1H-indole-6-carboxylic acid] | 95.1 | 
14 | O=C(O)c1ccc2c(C3CCCCC3)c(-c3ccc4nc(-c5cccnc5)ccc4c3)n(CC(=O)N3CCOCC3)c2c1 [Compound 226, 1-[N-morpholinocarbonylmethyl]-2-[2-pyrid-3-ylquinolin-6-yl]-3-cyclohexyl-1H-indole-6-carboxylic acid] |  | 94.5
15 | O=C(O)c1ccc2c(C3CCCCC3)c(-c3ccc(-c4ccc5ccccc5n4)cc3)n(CC(=O)N3CCOCC3)c2c1 [Compound 326, 3-Cyclohexyl-1-(2-morpholin-4-yl-2-oxo-ethyl)-2-(4-quinolin-2-yl-phenyl)-1H-indole-6-carboxylic acid] | 99.8 | 
16 | Cc1ccsc1-c1ccc2cc(-c3c(C4CCCCC4)c4ccc(C(=O)O)cc4n3CC(=O)N3CCOCC3)ccc2n1 [Compound 229, 3-Cyclohexyl-2-[2-(3-methyl-thiophen-2-yl)-quinolin-6-yl]-1-(2-morpholin-4-yl-2-oxo-ethyl)-1H-indole-6-carboxylic acid] | 96.5 | 
17 | COc1ccc(-c2ccc(Cl)cc2)c(-c2ccc3cc(-c4c(C5CCCCC5)c5ccc(C(=O)O)cc5n4CC(=O)N4CCC(N5CCCC5)CC4)ccc3n2)c1 [Compound 205, 1-[(4-pyrrolidin-1-yl-piperidin-1-yl)carbonylmethyl]-2-[2-(4′-chloro-4-methoxy-biphen-2-yl)-quinolin-6-yl]-3-cyclohexyl-1H-indole-6-carboxylic acid] | 97 | 
18 | Cc1ccc(-c2ccc3cc(-c4c(C5CCCCC5)c5ccc(C(=O)O)cc5n4CC(=O)N4CCOCC4)ccc3n2)cc1C [Compound 250, 3-Cyclohexyl-2-[2-(3,4-dimethyl-phenyl)-quinolin-6-yl]-1-(2-morpholin-4-yl-2-oxo-ethyl)-1H-indole-6-carboxylic acid] | 99.9 | 
19 | Cc1nc(C)c(-c2ccc3cc(-c4c(C5CCCCC5)c5ccc(C(=O)O)cc5n4CC(=O)N4CCOCC4)ccc3n2)o1 [Compound 260, 3-Cyclohexyl-2-[2-(2,4-dimethyl-oxazol-5-yl)-quinolin-6-yl]-1-(2-morpholin-4-yl-2-oxo-ethyl)-1H-indole-6-carboxylic acid] | 96 | 
20 | Nc1cccc(-c2ccc(-c3c(C4CCCCC4)c4ccc(C(=O)O)cc4n3CC(=O)N3CCOCC3)cc2)c1 [Compound 315, 2-(3′-Amino-biphenyl-4-yl)-3-cyclohexyl-1-(2-morpholin-4-yl-2-oxo-ethyl)-1H-indole-6-carboxylic acid] | 95.8 | 
21 | O=C(O)c1ccc2c(C3CCCCC3)c(-c3ccc4nc(-c5ccncc5)ccc4c3)n(CC(=O)N3CCOCC3)c2c1 [Compound 325, 3-Cyclohexyl-1-(2-morpholin-4-yl-2-oxo-ethyl)-2-(2-pyridin-4-yl-quinolin-6-yl)-1H-indole-6-carboxylic acid] | 93.6 | 
22 | NC(=O)c1cc(-c2ccc3cc(-c4c(C5CCCCC5)c5ccc(C(=O)O)cc5n4CC(=O)N4CCOCC4)ccc3n2)ccc1O [Compound 207, 1-[N-morpholinocarbonylmethyl]-2-[2-(3-amido-4-hydroxy-phenyl)-quinolin-6-yl]-3-cyclohexyl-1H-indole-6-carboxylic acid] | 95.7 | 
